The record followed here is ChEMBL document CHEMBL1158664, “New compounds with DNA strand-scission activity from the combined leaf and stem of Uvaria hamiltonii” (J Nat Prod, 1998).

The nature of assay [1]: Induction of strand scission activity in DNA assessed as relaxation of supercoiled DNA at 2.5 ug/ml. Also on record: scale not given: the % may be the effect or the level left.
Assay [2] in a line: Induction of strand scission activity in DNA assessed as ratio of 2.5 uM drug-induced to bleomycin-induced relaxation of supercoiled DNA.
The nature of assay [3]: Cytotoxicity against human 9KB cells. It counts as functional, cell-based.
Assay [4] in a line: Induction of strand scission activity in DNA assessed as ratio of 25 uM drug-induced to bleomycin-induced relaxation of supercoiled DNA.
Assay [5] in a line: Induction of strand scission activity in DNA assessed as relaxation of supercoiled DNA at 25 ug/ml. Also on record: scale not given: the % may be the effect or the level left.

In brackets after ≈: the same amount, converted by molar mass. Activity calls are given as the source filed them. The rule behind the calls is not given here.

Regarding `COc1cc2c(c(OC)c1OC)C(=O)/C(=C/c1ccc(O)c(O)c1)O2`, the Activity was determined as 83% in assay [1] and 10 in assay [2]. In assay [3], the IC50 (commonly the concentration at which inhibition is half-maximal) was above 20 µg/mL.

With `COc1ccc([C@@H]2CC(=O)c3c(cc(OC)c(O)c3OC)O2)cc1` [HAMILTONE A], the Activity in assay [4] was 1.1; in assay [5] it was 88%. Further, in assay [3], the IC50 was above 20 µg/mL.

`COc1cc(O)c(C(=O)/C=C/c2ccc(O)c(O)c2)c(OC)c1OC` [HAMILCONE]: the Activity was determined as 0.6 in assay [4] and 47% in assay [5]. The compound also had an IC50 in assay [3] of 8 µg/mL (≈ 23.1 µM).

Take `O=C(OC[C@@]12C=C[C@@H](OC(=O)c3ccccc3)[C@@H](O)[C@H]1Cc1cc(O)ccc1O2)c1ccccc1` [HEMILXANTHENE]: the outcome in assay [4] and in assay [5] was inactive. The compound also returned an IC50 in assay [3] of 10 µg/mL (≈ 21.2 µM).

On to `COc1cc2c(c(OC)c1OC)C(=O)CC(c1ccc(O)c(O)c1)O2` (racemic) [HAMILTONE B], for which the Activity in assay [4] worked out at 1; in assay [5] it was 76%. In assay [3], this compound had an IC50 above 20 µg/mL.
